Reference: publication PMC5462828 (Scientific Reports, 2017)

Assays:
[1] = tested on: human RXFP1; settings: cited from earlier work
[2] = set-up: method as in PMID 23764525; settings: cited from earlier work
[3] = tested on: T1, RXFP1 and Gαs; experiment: Real-time kinetic BRET, RXFP1-Rluc8 / Gαs; type: cell-based, human; settings: HEK293T co-expressing RXFP1-Rluc8, Gγ2-Venus, Gβ1, Gαs; H2 relaxin 100 nM, ML290 100 nM or 10 μM
T1 construct: forward primer encodes M-D-S-K-G-S-S, not the native RXFP1 start (N); expressed in transfected cells; host or cells: HEK293T cells stably expressing RXFP1-Rluc8, transiently co-transfected with the G protein subunits
Description: HEK293 cell were seeded in 6-well plates at a density of 600,000 cells per well and transfected with constructs encoding the tagged receptors and signalling proteins. 24 h later cells were harvested in HEPES-buffered phenol red-free medium containing 5% FBS and plated out in a white 96-well plate (Nunc) that was incubated at 37 °C under 5% CO2. BRET assays were performed 48 h after transfection as described previously, [52]. Medium was replaced with phenol-red-free-DMEM supplemented with 5% FBS plus 5 μM coelenterazine h. BRET measurements were made at 37 °C using the PHERAstar Omega plate reader with Omega software (BMG LABTECH, Germany). Filtered light emissions were simultaneously measured in each of the “donor wavelength window” (475 ± 15 nm for Rluc8 with coelenterazine h) and “acceptor wavelength window” (535 ± 15 nm for Venus). Cells were assayed before and after treatment with ligands or 5% FBS phenol-red-free-DMEM medium containing 0.01% w/v BSA (vehicle). The BRET signal was calculated as previously described.

[4] = tested on: MMP-2; experiment: Gelatin zymography of MMP-2 in human cardiac fibroblasts; type: cell-based; settings: HCFs; 72 hours; ML290 1 μM, H2 relaxin 0.1 μM
Description: Changes in matrix metalloproteinases-2 (MMP-2; gelatinase A) activity that were secreted from HCFs into the cell media over a 72 hour experimental period, were assessed by gelatin zymography as described previously, [45]. […] Cells were used between passages 1–4, while all experiments were performed four separate times in duplicate. The optical density (OD) of MMP-2 was measured using a GS710 Calibrated Imaging Densitomer (Bio-Rad Laboratories, Hercules, CA, USA), and the mean ± SE OD of MMP-2 in each treated group was expressed as the relative ratio of the values in the untreated control group.

CC(C)Oc1ccccc1C(=O)Nc1ccccc1C(=O)Nc1cccc(S(=O)(=O)C(F)(F)F)c1 [ML290, 2-Isopropoxy-N-(2-(3-(trifluoromethylsulfonyl)phenylcarbamoyl)phenyl) benzamide]
competition for 125I-H2 relaxin binding [1]: does not compete
cytotoxicity [2]: little cytotoxicity
ligand-induced BRET, RXFP1 - Gαs interaction [3]: promoted interactions
increase of MMP-2 expression versus untreated controls [4]: ~40%
